Assays:
Format in all cases: cell-based
S. aureus = assay: Rate of kill assessment, direct repeat inoculation of medium containing catheter; conditions: sample taken 5 seconds after each inoculation
Method: (§1) A microbiology assessment was performed using a medium of the invention comprising hypochlorous acid in an analogous manner to that performed for Example 2. However, for this test, following each inoculation, a sample was only taken after 5 seconds to evaluate the rate of kill. Further, in addition to the previous microorganisms tested, a further gram-positive organism, S. aureus, was tested.
(§2) A microbiology assessment was performed using a medium comprising chlorine dioxide in an analogous manner to that performed for Example 5.

E. coli = assay: as above; conditions: sample taken 5 seconds after each inoculation
Method: (§3) To assess the sterilisation potential of the medium comprising chlorine-containing species, a microbiology assessment was conducted which consisted of rate of kill assessments against repeat inoculation of E. coli and E. faecalis. These organisms were selected as they are commonly identified in catheter associated urinary tract infections. The selection also covers both gram-positive and gram-negative species to test the broad spectrum antimicrobial performance of the medium.
(§4) Intermittent urinary catheters, as used for Example 1, were provided and submerged in an aqueous medium comprising sodium hypochlorite and sodium chloride. The media comprising the catheters were respectively inoculated with the two microorganisms.
(§5) A direct inoculation method was applied against each microorganism. The test organisms were reinoculated following 1, 2, 3, 4, 5, 6, and 24 hours. Following each inoculation, a sample was taken after 5 seconds, 1, 5, 10 and 15 minutes to evaluate the rate of kill.
as §1, §2
(§6) A microbiology assessment was performed using the media comprising hypochlorous acid in an analogous manner to that performed for Example 2. However, for this test, following each inoculation, samples were taken after 5 seconds, 30 seconds, 1, 2, and 5 minutes to evaluate the rate of kill.

E. faecalis = assay: as above; conditions: for Reduction in microbial colony forming unit (CFU) counts: reinoculation at 24 hours; for Time up to which rapid kill within 5 seconds following inoculation was observed: repeat inoculation, sample taken 5 seconds after each inoculation
Method: as §3, §4, §5, §1, §2, §6

[1] = test system: Escherichia coli NCIMB 14067; assay: In vitro direct inoculation method, bacterial levels over 5 minutes
Method: (§7) An in vitro direct inoculation method was used to assess the antimicrobial activity of sulfanilamide in an intermittent urinary catheter scenario against […] Escherichia coli NCIMB 14067 and […] Enterococcus faecalis NCTC 12201; two microorganisms associated with urinary tract infections. Sulfanilamide concentrations of 0.1% and 0.01% were tested and bacterial levels monitored over a period of 5 minutes.
(§8) Representative colonies of the challenge microorganisms, from an 18-24 hour challenge culture plate, were dispersed in MRD to obtain an optical density (OD540nm) equivalent to approximately 1×10^8 CFU/mL. This was diluted to obtain a working concentration of 1×10^6 CFU/mL. A quantitative count was performed to confirm the inoculum level.
(§9) The challenge organism was prepared in MRD to a concentration of approximately 1×10^6 CFU/mL. This suspension was added in a 1 mL volume to 9 mL of sample (n=3 per sample, n=2 per control) in a sterile 30 mL universal and pipetted up and down to mix. Following each testing period, 5 seconds, 30 seconds, 1 minute, 2 minutes and 5 minutes, 100 μL of the test solution was transferred to 0.9 mL and 9.9 mL volumes of DENB (1:10 and 1:100 dilutions respectively). The most appropriate dilutions were inoculated (100 μL) onto duplicate pre-dried (tryptone soy agar) TSA plates and the inoculum spread using separate sterile L-shaped spreaders (for 10^−1 and 10^−2 dilutions, 0.5 mL were placed onto duplicate plates). The TSA plates were allowed to dry before being inverted and incubated at 35±3° C. for at least 48 hours. Following the incubation period, the number of bacterial colonies were counted on the most appropriate dilution for each dressing type i.e. between 25-250 CFU/plate.
(§10) The samples tested were: 0.1% sulfanilamide in sterile deionised water (SDW); 0.01% sulfanilamide in SDW; 100 ppm hypochlorous acid in SDW; and a SDW control.

[2] = test system: Enterococcus faecalis NCTC 12201; assay: as above
Method: as §7, §8, §9, §10

E. coli NCIMB 14067 = assay: Antimicrobial efficacy at very low concentrations, suspension test with total viable counts
Method: The antimicrobial efficacy of hypochlorous acid was tested at even lower concentrations (10, 25, and 50 ppm) against the challenging organism E. coli NCIMB 14067.
The representative colonies of E. coli NCIMB 14067 were dispersed in maximum recovery diluent (MRD) to obtain an optical density (OD540nm) equivalent to approximately 1×10^6 CFU/mL. A quantitative plate count was performed on this suspension to determine the total number of viable organisms inoculated. A new suspension was prepared for each concentration tested.
A 1000 ppm hypochlorous acid solution was diluted in sterile deionised water to provide the respective 10, 25 and 50 ppm hypochlorous acid solutions.
The hypochlorous acid samples were aliquoted into 9 mL volumes and 1 mL of the challenge organism suspension was added and mixed (the final number of bacteria present is now approximately 1×10^5 CFU/mL). Following 5, 30 seconds, 1, 2, and 5 minutes, 100 μL volumes were sampled and transferred to 0.9 mL and 9.9 mL of Dey-Engley Neutralising Broth (DENB) (to provide a 1:10 and 1:100 dilution respectively), and total viable counts were performed to establish the amount present. The plates were left to dry before being inverted and incubated at 35±3° C. for at least 48 hours. A negative control was also tested whereby 1 mL of the challenge organism suspension was added to 9 mL of MRD and tested as previously described. Following the incubation period, the number of CFUs were counted on the most appropriate dilution for each sample i.e. between 25-250 CFU/plate.

[3] = 100 ppm in SDW, within 5 seconds and for the remaining testing period
[4] = both concentrations tested (0.1% and 0.01% in SDW), any timepoint, 5 seconds to 5 minutes

| SMILES | Time up to which rapid kill within 5 seconds following inoculation was observed (S. aureus) | Time up to which rapid kill within 5 seconds following inoculation was observed (E. coli) | Reduction in microbial colony forming unit (CFU) counts (E. faecalis; after around 30 seconds of inoculation) | Time up to which rapid kill within 5 seconds following inoculation was observed (E. faecalis) | Numbers of challenge organism [1, 3] | Numbers of challenge organism [2, 3] | Reduction in microbial colony forming unit (CFU) counts (E. faecalis; after 5 minutes of inoculation) | Bacterial level at the 1 minute timepoint (E. coli NCIMB 14067; 10 ppm, about 1×10^5 CFU/mL inoculum) | Numbers of bacteria after 30 seconds (E. coli NCIMB 14067; 25 ppm, about 1×10^5 CFU/mL inoculum) | Numbers of bacteria after 30 seconds (E. coli NCIMB 14067; 50 ppm, about 1×10^5 CFU/mL inoculum) | CFU/mL of negative control (MRD) larger than for the samples (E. coli NCIMB 14067; all concentrations (10, 25, 50 ppm) and time points tested) | Decrease in challenge organism numbers compared to the control [1, 4] | Decrease in challenge organism numbers compared to the control [2, 4] |
| --- | --- | --- | --- | --- | --- | --- | --- | --- | --- | --- | --- | --- | --- |
| [O][Cl+][O-] [chlorine dioxide] | up to 6 hours | up to 24 hours | 4 orders of magnitude | up to 6 hours | – | – | – | – | – | – | – | – | – |
| OCl [hypochlorous acid] | up to 6 hours | up to 24 hours | – | up to 6 hours | undetectable | undetectable | over 3 orders of magnitude | undetectable | undetectable | undetectable | over 4 orders of magnitude | – | – |
| Nc1ccc(S(N)(=O)=O)cc1 [sulfanilamide, reference compound] | – | – | – | – | – | – | – | – | – | – | – | no decrease | no decrease |

From patent US20250339642A1, “CATHETERS” (ConvaTec Limited, priority 2023, published 2025)
